Data: patent publication US20040142012A1, “Geometry retainable devices for body cavities” (priority 2001, published 2004)

Settings: in vivo
Protocol: Progesterone content in the plasma was determined by direct radio immuno assay (Coat-a-Count, DPC, USA).

poly (ε-caprolactone)
Time to return to undetectable basal plasma progesterone levels after insert removal: ≤ 24 h
